Tests used:
Swiss albino mice [1] = assay: Formalin-induced hyperalgesia; type: in vivo; details: for number of flinching in the inflammatory phase compared to control group: 10 mg kg^–1 i.p.; for inhibition in vivo at 10 mg/kg: Mus musculus, ip, read-out: % inhibition of algesia (analgesic effect), 10 mg kg^–1 i.p. 30 min before formalin, Swiss albino mice
Solubility observations = type: physicochemical; details: enzyme immunoassay medium, in words
COX-1 = COX-1 (Homo sapiens, UniProt P23219); assay: Human whole blood COX-1 assay: calcium ionophore; type: cell-based; details: for effect on ionophore-stimulated TXB2 production: 1 μM, in words; for TXB2, +calcium ionophore: compound final concn 1 μM, control 2.00
Sequence of COX-1 (P23219 24-599): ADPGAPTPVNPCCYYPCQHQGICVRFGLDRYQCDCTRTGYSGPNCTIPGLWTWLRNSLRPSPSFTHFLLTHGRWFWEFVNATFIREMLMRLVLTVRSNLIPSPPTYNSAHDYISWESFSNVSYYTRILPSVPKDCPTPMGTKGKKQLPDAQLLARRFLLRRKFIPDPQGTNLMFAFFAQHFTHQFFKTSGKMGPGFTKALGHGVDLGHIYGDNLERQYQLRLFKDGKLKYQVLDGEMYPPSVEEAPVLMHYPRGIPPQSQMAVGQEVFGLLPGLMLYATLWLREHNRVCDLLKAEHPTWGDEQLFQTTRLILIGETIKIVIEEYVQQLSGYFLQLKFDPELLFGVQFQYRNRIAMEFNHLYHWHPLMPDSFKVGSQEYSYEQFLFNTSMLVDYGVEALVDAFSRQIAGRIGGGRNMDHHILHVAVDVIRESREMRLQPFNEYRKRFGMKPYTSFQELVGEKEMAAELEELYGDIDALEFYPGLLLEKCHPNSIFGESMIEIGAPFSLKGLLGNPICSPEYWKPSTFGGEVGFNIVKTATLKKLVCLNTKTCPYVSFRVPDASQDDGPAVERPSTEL

COX-2 [2] = target: T1, COX-2 (Homo sapiens, UniProt P35354); assay: Human whole blood COX-2 assay: LPS-stimulated PGE2 production; type: cell-based; details: for effect on PGE2 production in LPS-stimulated blood: 1 μM, in words; for PGE2, +LPS: compound final concn 1 μM, control 1.98
T1 sequence (P35354 18-604): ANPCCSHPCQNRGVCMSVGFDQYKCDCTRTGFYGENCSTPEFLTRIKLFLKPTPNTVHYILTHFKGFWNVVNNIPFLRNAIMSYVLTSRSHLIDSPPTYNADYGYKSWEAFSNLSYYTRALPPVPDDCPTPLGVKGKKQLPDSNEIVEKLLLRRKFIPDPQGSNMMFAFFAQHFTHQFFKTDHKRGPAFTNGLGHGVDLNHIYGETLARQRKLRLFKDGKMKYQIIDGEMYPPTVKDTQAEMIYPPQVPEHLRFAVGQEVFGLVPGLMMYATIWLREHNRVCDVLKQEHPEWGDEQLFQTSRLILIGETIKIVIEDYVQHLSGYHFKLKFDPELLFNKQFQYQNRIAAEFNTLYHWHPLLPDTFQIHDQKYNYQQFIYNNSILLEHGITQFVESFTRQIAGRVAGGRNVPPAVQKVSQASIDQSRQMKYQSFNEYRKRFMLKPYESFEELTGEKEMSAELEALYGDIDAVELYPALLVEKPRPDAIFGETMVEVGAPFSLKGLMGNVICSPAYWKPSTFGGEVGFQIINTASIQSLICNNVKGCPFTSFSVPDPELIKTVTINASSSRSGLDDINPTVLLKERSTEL

Swiss albino mice [3] = assay: Carrageenan-induced paw inflammation; type: in vivo; details: for paw thickness compared to untreated control group: carrageenan, in words
Swiss albino mice [4] = assay: Acute oral toxicity, 14 days; type: in vivo
[5] = In vivo pharmacokinetic study; set-up: species or system rat
COX-2 [6] = target: T1, COX-2; assay: Isothermal titration calorimetry with COX-2; type: binding; details: phosphate buffer pH 7.4
[7] = male wistar rat, 10 mg kg^–1 i.p.
[8] = male, Wistar, rat, serum, ip, 10 mg/kg

| Compound | number of flinching in the inflammatory phase compared to control group (Swiss albino mice [1]; in words) | inhibition in vivo at 10 mg/kg (Swiss albino mice [1]) | effect on ionophore-stimulated TXB2 production (COX-1) | TXB2, +calcium ionophore (COX-1) | effect on PGE2 production in LPS-stimulated blood (COX-2 [2]) | PGE2, +LPS (COX-2 [2]) | also measured |
| --- | --- | --- | --- | --- | --- | --- | --- |
| O=Cc1cn(-c2nc(N3CCOCC3)nc(N3CCOCC3)n2)c2ccccc12 [Compound 2, 1-(4,6-Dimorpholino-1,3,5-triazin-2-yl)-1H-indole-3-carbaldehyde] | significantly decreased | 57.4% | – | – | – | – | – |
| O=C1/C(=C\c2cn(-c3nc(N4CCOCC4)nc(N4CCOCC4)n3)c3ccccc23)c2ccccc2N1c1c(Cl)cccc1Cl [Compound 3, (Z)-1-(2,6-Dichlorophenyl)-3-((1-(4,6-dimorpholino-1,3,5-triazin-2-yl)1H-indolyl)methylene)indolin-2-one] | significantly decreased | 55.6% | – | – | – | – | – |
| O=C1Nc2ccccc2/C1=C/c1cn(-c2nc(N3CCOCC3)nc(N3CCOCC3)n2)c2ccccc12 [Compound 4, (Z)-3-((1-(4,6-Dimorpholino-1,3,5-triazin-2-yl)-1H-indol-3-yl)methylene)indolin-2-one] | significantly decreased | 61.3% | – | – | – | – | – |
| CN1C(=O)C(=Cc2cn(-c3nc(N4CCOCC4)nc(N4CCOCC4)n3)c3ccccc23)C(=O)N(C)C1=O [Compound 5, 1,3-Dimethyl-5-((1-(4,6-dimorpholino-1,3,5-triazin-2-yl)-1H-indol-3-yl)methylene)pyrimidine-2,4,6(1,3,5H)-trione] | – | – | – | – | – | – | solubility in the assay medium (Solubility observations): poor solubility |
| CC1=NN(c2cccc(Cl)c2)C(=O)/C1=C\c1cn(-c2nc(N3CCOCC3)nc(N3CCOCC3)n2)c2ccccc12 [Compound 6, (4Z)-1-(3-Chlorophenyl)-3-methyl-4-((1-(4,6-dimorpholino-1,3,5-triazin-2-yl)-1H-indol-3-yl)methylene)-1H-pyrazol-5(4H)-one] | significantly decreased | – | did not affect | 1.85 ng/mL | significantly decreased | 0.91 ng/mL | analgesic effect on A23187 pretreatment (Swiss albino mice [1]; TXA2 stimulator A23187, in words): did not alter; analgesic effect on pretreatment with L-arginine or L-NAME (Swiss albino mice [1]; given 30 min before compound, in words): did not alter; analgesic effect on pretreatment with substance P (Swiss albino mice [1]; substance P 30 min before compound, in words): significantly attenuated; decrease in paw thickness (Swiss albino mice [3]; 30 min after carrageenan): 18%; decrease in paw thickness (Swiss albino mice [3]; 60 min after carrageenan): 14%; paw thickness compared to untreated control group (Swiss albino mice [3]): decrease the paw thickness significantly; mortality or gross behavioral impairment (Swiss albino mice [4]; 50, 300 and 2000 mg kg^–1, after the 14th day): no mortality or any gross behavioral impairment; maximum tolerable dose (Swiss albino mice [4]; Swiss albino mice): > 2000 mg kg^–1; tissue histology (liver, kidney, myocardium) (Swiss albino mice [4]; after 14 days, H and E staining): no significant lesions except for some degree of congestion; toxicity (Swiss albino mice [4]; dose of 2000 mg kg^–1): did not exhibit toxicity; Cl/F_obs [5, 7]: 0.0008011 (mg)/(μg/mL)/min; Vz/F_obs [5, 7]: 0.3796 (mg)/(μg/mL); Cmax [5, 8]: 58.5 µg/mL; MRT inf [5, 8]: 8.16 h; Tmax [5, 8]: 3 h; k el [5, 8]: 3.52e-05 s⁻¹; half-life ([5]; male, Wistar, rat, serum, ip, 10 mg/kg, half-life, male wistar rat, 10 mg kg^–1 i.p.): 5.5 h; half-life ([5]; male, Wistar, rat, serum, ip, 10 mg/kg, t1/2, male wistar rat, 10 mg kg^–1 i.p.): 5.47 h; ΔH COX-2 (ITC) (COX-2 [6]): -9.685 kcal/mol |
| O=C1Nc2ccccc2/C1=C/c1cn(-c2nc(N3CCCCC3)nc(N3CCOCC3)n2)c2ccccc12 [Compound 10, (Z)-3-((1-(4-Morpholino-6-(piperidin-1-yl)-1,3,5-triazin-2-yl)-1H-indol-3-yl)methylene)indolin-2-one] | significantly decreased | 54.9% | did not affect | 1.55 ng/mL | significantly decreased | 1.02 ng/mL | – |
| CC1=NN(c2cccc(Cl)c2)C(=O)/C1=C\c1cn(-c2nc(N3CCCCC3)nc(N3CCOCC3)n2)c2ccccc12 [Compound 12, (Z)-1-(3-Chlorophenyl)-3-methyl-4-((1-(4-morpholino-6-(piperidin-1-yl)-1,3,5-triazin-2-yl)-1H-indol-3-yl)methylene)-1H-pyrazol-5(4H)-one] | significantly decreased | 74.2% | did not affect | 1.75 ng/mL | significantly decreased | 0.95 ng/mL | paw thickness compared to untreated control group (Swiss albino mice [3]): decrease the paw thickness significantly |
| CC1=NN(c2cccc(Cl)c2)C(=O)/C1=C\c1cn(-c2nc(N3CCCC3)nc(N3CCOCC3)n2)c2ccccc12 [Compound 17, (Z)-1-(3-Chlorophenyl)-3-methyl-4-((1-(4-morpholino-6-(pyrrolidin-1-yl)-1,3,5-triazin-2-yl)-1H-indol-3-yl)methylene)-1H-pyrazol-5(4H)-one] | significantly decreased | – | did not affect | 1.70 ng/mL | significantly decreased | 1.00 ng/mL | – |
| CC1=NN(c2cccc(Cl)c2)C(=O)/C1=C\c1cn(-c2nc(Cl)nc(N3CCOCC3)n2)c2ccccc12 [Compound 18, (Z)-4-((1-(4-Chloro-6-morpholino-1,3,5-triazin-2-yl)-1H-indol-3-yl)methylene)-1-(3-chlorophenyl)-3-methyl-1H-pyrazol-5(4H)-one] | significantly decreased | 59% | – | – | – | – | – |
| CC1=NN(c2cccc(Cl)c2)C(=O)/C1=C\c1cn(-c2nc(N3CCCCC3)nc(N3CCCCC3)n2)c2ccccc12 [Compound 22, (Z)-1-(3-Chlorophenyl)-4-((1-(4,6-di(piperidin-1-yl)-1,3,5-triazin-2-yl)-1H-indol-3-yl)methylene)-3-methyl-1H-pyrazol-5(4H)-one] | significantly decreased | 61.9% | – | – | – | – | – |
| O=C(O)Cc1ccccc1Nc1c(Cl)cccc1Cl [Diclofenac, reference compound] | significantly decreased | – | – | – | – | – | – |
| COc1ccc2c(c1)c(CC(=O)O)c(C)n2C(=O)c1ccc(Cl)cc1 [Indomethacin, reference compound] | – | – | – | – | – | – | decrease in paw thickness (Swiss albino mice [3]; 30 min after carrageenan): 30%; decrease in paw thickness (Swiss albino mice [3]; 60 min after carrageenan): 25%; paw thickness compared to untreated control group (Swiss albino mice [3]): decrease the paw thickness significantly |

Source: PMC6044720 (ACS Omega, 2018)
